Read-outs that look alike come from different tables or passages of the source.
Columns and labels:
Type in all cases: cell-based
[1] = tested on: Streptococcus intermedius; assay: In vitro MIC testing against anaerobic bacteria; settings: ATCC27335; Streptococcus intermedius 1203, ATCC 27335
Bifidobacterium brevi = assay: In vitro MIC testing against anaerobic bacteria; settings: ATCC15698; Bifidobacterium brevi 3967, ATCC 15698
Bifidobacterium bifidum = assay: In vitro MIC testing against anaerobic bacteria; settings: ATCC15696; Bifidobacterium bifidum 3965, ATCC 15696
E. faecalis = assay: In vitro MIC testing, antibacterial spectrum of activity
[2] = tested on: Peptostreptococcus anaerobius; assay: In vitro MIC testing against anaerobic bacteria
[3] = tested on: Peptostreptococcus micros; assay: In vitro MIC testing against anaerobic bacteria; settings: Parvimonas micra
E. faecium = assay: In vitro MIC testing, antibacterial spectrum of activity; settings: for MIC / MIC50 / MIC90: Enterococcus faecium; for MIC50: read-out: MIC50; for MIC90: read-out: MIC90
P. granulosum = assay: as above; settings: P. granulosum [clinical isolates] (3 isolates)
Lactobacillus casei = assay: In vitro MIC testing against anaerobic bacteria; settings: Lacticaseibacillus casei, ATCC393; Lactobacillus casei 1722, ATCC 393
Clostridium perfringens = assay: microbe, parasite or virus in culture
Fusobacterium nucleatum = assay: In vitro MIC testing against anaerobic bacteria; settings: Fusobacterium nucleatum, ATCC25586
P. mirabilis = assay: In vitro MIC testing, antibacterial spectrum of activity; settings: P. mirabilis (30 isolates)
Veillonella parvula = assay: In vitro MIC testing against anaerobic bacteria; settings: ATCC17745; Veillonella parvula 1272, ATCC 17745
K. pneumoniae = assay: In vitro MIC testing, antibacterial spectrum of activity
P. avidum = assay: as above; settings: P. avidum [clinical isolates] (4 isolates)
[4] = tested on: Fusobacterium necrophorum; assay: In vitro MIC testing against anaerobic bacteria; settings: Fusobacterium necrophorum, ATCC25286
Bifidobacterium longum = assay: In vitro MIC testing against anaerobic bacteria; settings: ATCC15707; Bifidobacterium longum 3968, ATCC 15707
Bacteroides ovatus = assay: In vitro MIC testing against anaerobic bacteria
[5] = tested on: Lactobacillus acidophilus; assay: In vitro MIC testing against anaerobic bacteria; settings: Lactobacillus acidophilus 0681
Clostridium difficile = assay: In vitro MIC testing against anaerobic bacteria
[6] = tested on: Porphyromonas asaccharolytica; assay: In vitro MIC testing against anaerobic bacteria
[7] = tested on: Streptococcus spp. [Group C]; assay: In vitro MIC testing, antibacterial spectrum of activity; settings: Streptococcus spp. [Group C] (30 isolates)
[8] = tested on: Bacteroides thetaiotaomicron; assay: In vitro MIC testing against anaerobic bacteria
S. haemolyticus = assay: In vitro MIC testing, antibacterial spectrum of activity; settings: S. haemolyticus (33 isolates)
Propionibacterium acnes = assay: In vitro MIC testing against anaerobic bacteria; settings: Cutibacterium acnes
S. agalactiae = assay: In vitro MIC testing, antibacterial spectrum of activity
P. aeruginosa = assay: as above; settings: Pseudomonas aeruginosa; P. aeruginosa (11 isolates)
Eikenella corrodens = assay: In vitro MIC testing against anaerobic bacteria; settings: ATCC43278; Eikenella corrodens 1206, ATCC 43278; read-out: MIC
Bacteroides fragilis = assay: In vitro MIC testing against anaerobic bacteria
S. pyogenes = assay: In vitro MIC testing, antibacterial spectrum of activity
Bifidobacterium infantis = assay: In vitro MIC testing against anaerobic bacteria; settings: ATCC15702; Bifidobacterium infantis 3966, ATCC 15702
E. coli = assay: In vitro MIC testing, antibacterial spectrum of activity; settings: Escherichia coli
[9] = Klebsiella pneumoniae, K. pneumoniae (31 isolates)

CON(C)Cc1ccc(O)c2c1C[C@H]1C[C@H]3[C@H](N(C)C)C(O)=C(C(N)=O)C(=O)[C@@]3(O)C(O)=C1C2=O [The Active, (4S,4aS,5aR,12aS)-4-dimethylamino-3,10,12,12a-tetrahydroxy-7-[(methoxy(methyl)amino)-methyl]-1,11-dioxo-1,4,4a,5,5a,6,11,12a-octahydro-naphthacene-2-carboxylic acid amide]
≤ 4 µg/mL: MIC (Propionibacterium acnes; P. acnes, summary of Table 1, read-out: minimum inhibitory concentration (MIC), relatively potent activity)
16 to 32 µg/mL: MIC Range (S. agalactiae; S. agalactiae [tetR] (7 isolates))
16 to 64 µg/mL: MIC Range (K. pneumoniae; K. pneumoniae [tetS] (7 isolates))
≦0.06-0.25 μg/mL: MIC Range (S. pyogenes; S. pyogenes [tetS] (5 isolates))
>64 µg/mL: MIC Range (P. mirabilis)
0.12 to 16 µg/mL: MIC Range [7] | MIC Range (S. pyogenes; S. pyogenes (32 isolates))
4 to 16 µg/mL: MIC Range (S. pyogenes; S. pyogenes [tetR] (5 isolates))
0.25 to 32 µg/mL: MIC Range (E. faecalis; E. faecalis [VSE] (31 isolates))
0.5 µg/mL: MIC50 (E. faecium; E. faecium [VSE] (32 isolates)) | MIC (Bifidobacterium infantis)
32 µg/mL: MIC (E. faecalis; Enterococcus faecalis, E. faecalis strain PBS # 274, tetL) | MIC50 (E. faecalis; Enterococcus faecalis, E. faecalis [VSE] (31 isolates), read-out: MIC50) | MIC90 (E. faecalis; Enterococcus faecalis, E. faecalis [VSE] (31 isolates), read-out: MIC90) | MIC90 (E. faecium; E. faecium [VRE] (30 isolates)) | MIC90 (E. faecium; E. faecium [VSE] (32 isolates)) | MIC (S. agalactiae; Streptococcus agalactiae, S. agalactiae strain PBS # 316, tetO)
8 µg/mL: MIC (E. faecalis; Enterococcus faecalis, E. faecalis strain PBS # 949, tetS) | MIC (E. faecium; E. faecium strain PBS # 965, tetM) | MIC (E. faecium; E. faecium strain PBS # 1323, tetK) | MIC (Bacteroides ovatus; Bacteroides ovatus 3503, read-out: MIC) | MIC ([6]; Porphyromonas asaccharolytica 3557, read-out: MIC) | MIC90 (S. pyogenes; Streptococcus pyogenes, S. pyogenes (32 isolates), read-out: MIC90)
4 µg/mL: MIC ([2]; Peptostreptococcus anaerobius 3531) | MIC (Veillonella parvula) | MIC (Bifidobacterium longum) | MIC [5] | MIC (S. pyogenes; Streptococcus pyogenes, S. pyogenes strain PBS # 792, tetM)
> 64 µg/mL: MIC50 (P. mirabilis; Proteus mirabilis) | MIC90 (P. mirabilis; Proteus mirabilis) | MIC50 (K. pneumoniae; [9]) | MIC90 (K. pneumoniae; [9]) | MIC (K. pneumoniae; Klebsiella pneumoniae, K. pneumoniae strain PBS # 266, tetD) | MIC50 (P. aeruginosa) | MIC90 (P. aeruginosa) | MIC (E. coli) | MIC90 (E. coli)
1-1 μg/mL: MIC Range (P. granulosum)
2 µg/mL: MIC ([2]; Peptostreptococcus anaerobius 3526) | MIC50 (E. faecium; E. faecium [VRE] (30 isolates)) | MIC (Lactobacillus casei) | MIC90 (S. haemolyticus; Staphylococcus haemolyticus, read-out: MIC90)
0.12 µg/mL: MIC (Clostridium difficile; Clostridioides difficile) | MIC (Clostridium difficile; Clostridium difficile 3584) | MIC50 (S. haemolyticus; Staphylococcus haemolyticus, read-out: MIC50) | MIC (Bacteroides fragilis; Bacteroides fragilis 3374) | MIC50 (S. pyogenes; Streptococcus pyogenes, S. pyogenes (32 isolates), read-out: MIC50)
0.12 to 2 µg/mL: MIC Range (S. haemolyticus)
1 to 4 µg/mL: MIC Range (P. avidum)
> 16 µg/mL: MIC (Clostridium perfringens; read-out: MIC, high MIC values)
0.25 µg/mL: MIC [3] | MIC (Fusobacterium nucleatum) | MIC [4] | MIC (Bacteroides ovatus) | MIC50 ([7]; read-out: MIC50) | MIC ([8]; Bacteroides thetaiotaomicron 3399) | MIC (Propionibacterium acnes)
8 to 32 µg/mL: MIC Range (E. faecalis; E. faecalis [tetR] (6 isolates)) | MIC Range (E. faecium; E. faecium [tetR] (6 isolates))
16 µg/mL: MIC (E. faecalis; Enterococcus faecalis, E. faecalis strain PBS # 276, tetM) | MIC (E. faecium; E. faecium strain PBS # 1324, tetO) | MIC (Clostridium perfringens) | MIC [6] | MIC90 ([7]; read-out: MIC90) | MIC ([8]; Bacteroides thetaiotaomicron 3496) | MIC (S. agalactiae; Streptococcus agalactiae, S. agalactiae strain PBS # 897, tetM) | MIC90 (S. agalactiae; Streptococcus agalactiae, S. agalactiae (31 isolates), read-out: MIC90) | MIC (Bacteroides fragilis; Bacteroides fragilis 3479) | MIC (S. pyogenes; Streptococcus pyogenes, S. pyogenes strain PBS # 330, tetO)
1 µg/mL: MIC [1] | MIC (Bifidobacterium brevi) | MIC (Bifidobacterium bifidum) | MIC ([3]; Peptostreptococcus micros 3545, read-out: MIC) | MIC (Propionibacterium acnes; ATCC11829, Propionibacterium acnes 1286, ATCC 11829, read-out: MIC) | MIC (Eikenella corrodens)
0.12 to 32 µg/mL: MIC Range (E. faecium; E. faecium [VRE] (30 isolates)) | MIC Range (E. faecium; E. faecium [VSE] (32 isolates)) | MIC Range (S. agalactiae; S. agalactiae (31 isolates))
0.125 to 0.25 µg/mL: MIC Range (S. agalactiae; S. agalactiae [tetS] (3 isolates))
